Assay results: patent US20230248833A1, “COMPOUND HAVING BTK KINASE DEGRADING ACTIVITY, AND PREPARATION METHOD AND PHARMACEUTICAL USE THEREFOR” (SICHUAN HAISCO PHARMACEUTICAL CO., LTD., priority 2020, published 2023)
Read-outs that look alike come from different tables or passages of the source.

How the values were obtained:
Mino cells = experiment: Inhibition of cell proliferation, Mino cells (Cell Viability Assay, 72 h); type: cell-based, human
Procedure: (§1) SU-DHL-4, Mino, and SU-DHL-6 cells, in the culture medium of RPMI1640+10% FBS, were cultured in an incubator at 37° C. under 5% CO2. Cells were plated in a 96-well plate. Specifically, SU-DHL-4 cells were at 20000/well, Mino and SU-DHL-6 cells were at 5000/well, with 90 μL/well. 10 μL of the compounds at different concentrations were added to each well. There were 3 replicate wells for each concentration, and the last column, added with DMSO, was used as a vehicle control group. The cultures were continued for 72 hours at 37° C. under 5% CO2. After 72 hours, 100 μL of detection reagent (Cell Viability Assay, Promega, G7573) was added to each well, and the cultures were uniformly mixed for 2 minutes, and incubated at room temperature for 10 minutes. The […] signal value was measured with a microplate reader (PHERAstar FSX). The IC50 value of the compound on cell proliferation inhibition was calculated using origin9.2 software, and the inhibition rate at the highest concentration of the compound (Max inhi.%) was calculated according to formula (1).
(§2) Max inhi.%=(1−T72administration/T72vehicle)×100 Formula (1).

SU-DHL-6 cells = experiment: Inhibition of cell proliferation, SU-DHL-6 cells (Cell Viability Assay, 72 h); type: cell-based, human
Procedure: as §1, §2

[1] = Pharmacokinetic experiment in rats; type: in vivo; conditions: male, SD, rat, po, plasma, single dose
Procedure: Experimental objective: In this experiment, a single dose of each test compound was administered to SD rats intravenously and intragastrically, the concentrations of the test compound in plasma of rats were measured, and the pharmacokinetic characteristics and bioavailability of the test compound in rats were evaluated.
Experimental animals: Male SD rats, about 200 g, 6-8 weeks old, 6 rats/compound. Rats were purchased from Hunan SJA Laboratory Animal Co., Ltd, with the laboratory animal production license number of SCXK (Xiang) 2019-004.
Experimental method: On the day of the experiment, 6 SD rats were randomly grouped according to their body weight. The animals were fasted with water available for 12 to 14 hours one day before the administration of a test compound, and were fed 4 hours after the administration.
Before and after the administration, […] of blood was taken from the orbit of the rats under isoflurane anesthesia, and placed in an EDTAK2 centrifuge tube. Centrifugation was carried out at 5000 rpm at 4° C. for 10 min, and the plasma was collected.
Time points for sample collection in G1&G2 groups comprise
Before analysis and detection, all samples were stored at −80° C. The samples were detected by HPLC-MS/MS.

Row | IC50 (SU-DHL-6 cells; Homo sapiens, SU-DHL-6, 72 h) | AUC(0-t) ([1]; i.g. (20 mg/kg)) | IC50 (SU-DHL-6 cells) | AUC(0-t) ([1]; i.g. (5 mg/kg)) | SMILES | IC50 (Mino cells; Homo sapiens, MINO, 72 h) | IC50 (Mino cells)
1 | 98 nM | 2280 ± 64 ng·h/mL | – | – | Nc1ncnc2c1c(-c1ccc(Oc3ccccc3)cc1)nn2C1CCN(C2CN(CC3(F)CCN(c4cc5c(cc4F)C(=O)N(C4CCC(=O)NC4=O)C5=O)CC3)C2)CC1 (stereo not shown) [Compound 117, 5-(4-((3-(4-(4-amino-3-(4-phenoxyphenyl)-1H-pyrazolo[3,4-d]pyrimidin-1-yl)piperidin-1-yl)azetidin-1-yl)methyl)-4-fluoropiperidin-1-yl)-2-(2,6-dioxopiperidin-3-yl)-6-fluoroisoindoline-1,3-dione] | 119 nM | –
2 | 23 nM | 1320 ± 653 ng·h/mL | – | – | Nc1ncnc2c1c(-c1ccc(Oc3ccccc3)cc1)nn2[C@H]1CCN(C2CN(CC3CN(c4ccc5c(c4)C(=O)N(C4CCC(=O)NC4=O)C5=O)C3)C2)C[C@H]1F (stereo partly drawn) [Compound 104, 5-(3-((3-((3R,4S)-4-(4-amino-3-(4-phenoxyphenyl)-1H-pyrazolo[3,4-d]pyrimidin-1-yl)-3-fluoropiperidin-1-yl)azetidin-1-yl)methyl)azetidin-1-yl)-2-(2,6-dioxopiperidin-3-yl)isoindoline-1,3-dione] | 16 nM | –
3 | – | – | 22 nM | – | Nc1ncnc2c1c(-c1ccc(Oc3ccccc3)cc1)nn2C1CCN(C2CN(CC3CN(c4ccc5c(c4)CN(C4CCC(=O)NC4=O)C5=O)C3)C2)CC1 (stereo not shown) [Trifluoroacetate of compound 107, 3-(5-(3-((3-(4-(4-amino-3-(4-phenoxyphenyl)-1H-pyrazolo[3,4-d]pyrimidin-1-yl)piperidin-1-yl)azetidin-1-yl)methyl)azetidin-1-yl)-1-oxoisoindolin-2-yl)piperidine-2,6-dione] | – | 34 nM
4 | 24 nM | – | – | 504 ± 131 ng·h/mL | Nc1ncnc2c1c(-c1ccc(Oc3ccccc3)cc1)nn2C1CCN(C2CN(CC3CCN(c4ccc5c(c4)C(=O)N(C4CCC(=O)NC4=O)C5=O)C3)C2)CC1 (stereo not shown) [Trifluoroacetate of compound 99, 5-(3-((3-(4-(4-amino-3-(4-phenoxyphenyl)-1H-pyrazolo[3,4-d]pyrimidin-1-yl)piperidin-1-yl)azetidin-1-yl)methyl)pyrrolidine-1-yl)-2-(2,6-dioxopiperidin-3-yl)isoindoline-1,3-dione] | 21 nM | –
5 | 50 nM | 2080 ± 985 ng·h/mL | – | – | Nc1ncnc2c1c(-c1ccc(Oc3ccccc3)cc1)nn2C1CCN(C2CN(CC3(F)CCN(c4ccc5c(c4)C(=O)N(C4CCC(=O)NC4=O)C5=O)CC3)C2)CC1 (stereo not shown) [Compound 118, 5-(4-((3-(4-(4-amino-3-(4-phenoxyphenyl)-1H-pyrazolo[3,4-d]pyrimidin-1-yl)piperidin-1-yl)azetidin-1-yl)methyl)-4-fluoropiperidin-1-yl)-2-(2,6-dioxopiperidin-3-yl)isoindoline-1,3-dione] | 52 nM | –
6 | – | – | 145 nM | – | Nc1ncnc2c1c(-c1ccc(Oc3ccccc3)cc1)nn2C1CCN(C2CN(CC3CN(Cc4ccc5c(c4)C(=O)N(C4CCC(=O)NC4=O)C5=O)C3)C2)CC1 (stereo not shown) [Trifluoroacetate of compound 109, 5-((3-((3-(4-(4-amino-3-(4-phenoxyphenyl)-1H-pyrazolo[3,4-d]pyrimidin-1-yl)piperidin-1-yl)azetidin-1-yl)methyl)azetidin-1-yl)methyl)-2-(2,6-dioxopiperidin-3-yl)isoindoline-1,3-dione] | – | 356 nM
7 | 36 nM | 1780 ± 663 ng·h/mL | – | – | Nc1ncnc2c1c(-c1ccc(Oc3ccccc3)cc1)nn2[C@H]1CCN(C2CN(CC3CN(c4ccc5c(c4)C(=O)N(C4CCC(=O)NC4=O)C5=O)C3)C2)C[C@@H]1F (stereo partly drawn) [Compound 112, 5-(3-((3-((3S,4S)-4-(4-amino-3-(4-phenoxyphenyl)-1H-pyrazolo[3,4-d]pyrimidin-1-yl)-3-fluoropiperidin-1-yl)azetidin-1-yl)methyl)azetidin-1-yl)-2-(2,6-dioxopiperidin-3-yl)isoindoline-1,3-dione] | 39 nM | –
8 | 31 nM | 614 ± 125 ng·h/mL | – | – | Nc1ncnc2c1c(-c1ccc(Oc3ccccc3)cc1)nn2[C@@H]1CCN(C2CN(CC3CN(c4ccc5c(c4)C(=O)N(C4CCC(=O)NC4=O)C5=O)C3)C2)C[C@@H]1F (stereo partly drawn) [Compound 110, 5-(3-((3-((3S,4R)-4-(4-amino-3-(4-phenoxyphenyl)-1H-pyrazolo[3,4-d]pyrimidin-1-yl)-3-fluoropiperidin-1-yl)azetidin-1-yl)methyl)azetidin-1-yl)-2-(2,6-dioxopiperidin-3-yl)isoindoline-1,3-dione] | 35 nM | –
9 | 12 nM | 347 ± 55 ng·h/mL | – | – | Nc1ncnc2c1c(-c1ccc(Oc3ccccc3)cc1)nn2C1CCN(C2CN(CC3CCN(c4ccc5c(c4)C(=O)N(C4CCC(=O)NC4=O)C5=O)CC3)C2)CC1 (stereo not shown) [Trifluoroacetate of compound 98, 5-(4-((3-(4-(4-amino-3-(4-phenoxyphenyl)-1H-pyrazolo[3,4-d]pyrimidin-1-yl)piperidin-1-yl)azetidin-1-yl)methyl)piperidin-1-yl)-2-(2,6-dioxopiperidin-3-yl)isoindoline-1,3-dione] | 20 nM | –
10 | 99 nM | – | – | – | Nc1ncnc2c1c(-c1ccc(Oc3ccccc3)cc1)nn2C1CCN(C2C[C@@H]3CN(CC4CN(c5ccc6c(c5)C(=O)N(C5CCC(=O)NC5=O)C6=O)C4)C[C@@H]3C2)CC1 (stereo partly drawn) [Trifluoroacetate of compound 100, 5-(3-(((3aR,6aS)-5-(4-(4-amino-3-(4-phenoxyphenyl)-1H-pyrazolo[3,4-d]pyrimidin-1-yl)piperidin-1-yl)hexahydrocyclopenta[c]pyrrol-2(1H)-yl)methyl)azetidin-1-yl)-2-(2,6-dioxopiperidin-3-yl)isoindoline-1,3-dione] | 123 nM | –
11 | 52 nM | 4440 ± 544 ng·h/mL | – | – | Nc1ncnc2c1c(-c1ccc(Oc3ccccc3)cc1)nn2C1CCN(C2CN(CC3(F)CN(c4ccc5c(c4)C(=O)N(C4CCC(=O)NC4=O)C5=O)C3)C2)CC1 (stereo not shown) [Compound 116, 5-(3-((3-(4-(4-amino-3-(4-phenoxyphenyl)-1H-pyrazolo[3,4-d]pyrimidin-1-yl)piperidin-1-yl)azetidin-1-yl)methyl)-3-fluoroazetidin-1-yl)-2-(2,6-dioxopiperidin-3-yl)isoindoline-1,3-dione] | 29 nM | –
12 | 77 nM | – | – | – | Nc1ncnc2c1c(-c1ccc(Oc3ccccc3)cc1)nn2C1CCN(C2CC3(CCN(CC4CN(c5ccc6c(c5)C(=O)N(C5CCC(=O)NC5=O)C6=O)C4)CC3)C2)CC1 (stereo not shown) [Trifluoroacetate of compound 101, 5-(3-((2-(4-(4-amino-3-(4-phenoxyphenyl)-1H-pyrazolo[3,4-d]pyrimidin-1-yl)piperidin-1-yl)-7-azaspiro[3.5]nonan-7-yl)methyl)azetidin-1-yl)-2-(2,6-dioxopiperidin-3-yl)isoindoline-1,3-dione] | 77 nM | –
13 | 24 nM | 2670 ± 738 ng·h/mL | – | – | Nc1ncnc2c1c(-c1ccc(Oc3ccccc3)cc1)nn2[C@H]1CCN(C2CN(CC3CN(c4cc5c(cc4F)C(=O)N(C4CCC(=O)NC4=O)C5=O)C3)C2)C[C@H]1F (stereo partly drawn) [Compound 114, 5-(3-((3-((3R,4S)-4-(4-amino-3-(4-phenoxyphenyl)-1H-pyrazolo[3,4-d]pyrimidin-1-yl)-3-fluoropiperidin-1-yl)azetidin-1-yl)methyl)azetidin-1-yl)-2-(2,6-dioxopiperidin-3-yl)-6-fluoroisoindoline-1,3-dione] | 66 nM | –
14 | 23 nM | 753 ± 261 ng·h/mL | – | – | Nc1ncnc2c1c(-c1ccc(Oc3ccccc3)cc1)nn2[C@@H]1CCN(C2CN(CC3CN(c4ccc5c(c4)C(=O)N(C4CCC(=O)NC4=O)C5=O)C3)C2)C[C@H]1F (stereo partly drawn) [Compound 111, 5-(3-((3-((3R,4R)-4-(4-amino-3-(4-phenoxyphenyl)-1H-pyrazolo[3,4-d]pyrimidin-1-yl)-3-fluoropiperidin-1-yl)azetidin-1-yl)methyl)azetidin-1-yl)-2-(2,6-dioxopiperidin-3-yl)isoindoline-1,3-dione] | 50 nM | –
15 | 331 nM | – | – | – | Nc1ncnc2c1c(-c1ccc(Oc3ccccc3)cc1)nn2C1CCN(C2CN(CC3CN(c4cccc5c4C(=O)N(C4CCC(=O)NC4=O)C5=O)C3)C2)CC1 (stereo not shown) [Compound 105, 4-(3-((3-(4-(4-amino-3-(4-phenoxyphenyl)-1H-pyrazolo[3,4-d]pyrimidin-1-yl)piperidin-1-yl)azetidin-1-yl)methyl)azetidin-1-yl)-2-(2,6-dioxopiperidin-3-yl)isoindoline-1,3-dione] | 208 nM | –
